Experimental data published in PMC12799524, “Putative new biomarkers for renal transporter-mediated drug-drug interactions: Characterization as substrates of organic cation transporter 2, multidrug and toxin extrusion protein 1, and other important drug transporters” (Drug Metabolism and Disposition, 2025).

Assays:
human OCT2 = target: T1, human OCT2 (Homo sapiens, UniProt O15244); assay: Uptake assay in HEK-OCT2 vs HEK-VC cells; assay type: in vitro ADME; design: expressed in transfected cells; host or cells: HEK293 (HEK-OCT2)
T1 sequence (O15244 1-555): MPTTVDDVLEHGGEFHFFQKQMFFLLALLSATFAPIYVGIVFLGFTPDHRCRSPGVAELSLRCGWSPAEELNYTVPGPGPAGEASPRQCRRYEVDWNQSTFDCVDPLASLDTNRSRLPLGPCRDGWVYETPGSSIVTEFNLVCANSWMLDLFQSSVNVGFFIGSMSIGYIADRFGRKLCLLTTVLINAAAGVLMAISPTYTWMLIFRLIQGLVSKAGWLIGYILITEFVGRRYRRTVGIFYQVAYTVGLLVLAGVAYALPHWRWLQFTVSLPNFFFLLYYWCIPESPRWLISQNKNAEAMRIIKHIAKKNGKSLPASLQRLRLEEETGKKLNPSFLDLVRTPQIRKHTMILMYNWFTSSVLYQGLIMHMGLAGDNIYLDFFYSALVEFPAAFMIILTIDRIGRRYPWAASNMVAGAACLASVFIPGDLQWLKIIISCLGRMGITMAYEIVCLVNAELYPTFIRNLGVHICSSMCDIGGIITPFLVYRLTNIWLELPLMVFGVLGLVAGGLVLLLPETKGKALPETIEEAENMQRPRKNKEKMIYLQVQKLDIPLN
Description: (§1) Transport experiments were performed 48 hours after seeding.
(§2) The intracellular background of all 5 compounds in HEK cells at the beginning of the uptake experiments was investigated 48 hours after seeding without incubation with transport buffer (ie, 0 minutes). […] Then, cells were lysed with ice-cold 80% MeOH containing the aforementioned recovery standards. In addition, the impact of a 5-minute incubation period with transport buffer without added substance was investigated.

MATE1 = target: T2, MATE1 (Homo sapiens, UniProt Q96FL8); assay: Uptake assay in HEK-MATE1 vs HEK-VC cells (pH 8.0); conditions: 0 minutes and 5 minutes without added substance
T2 sequence (Q96FL8 1-570): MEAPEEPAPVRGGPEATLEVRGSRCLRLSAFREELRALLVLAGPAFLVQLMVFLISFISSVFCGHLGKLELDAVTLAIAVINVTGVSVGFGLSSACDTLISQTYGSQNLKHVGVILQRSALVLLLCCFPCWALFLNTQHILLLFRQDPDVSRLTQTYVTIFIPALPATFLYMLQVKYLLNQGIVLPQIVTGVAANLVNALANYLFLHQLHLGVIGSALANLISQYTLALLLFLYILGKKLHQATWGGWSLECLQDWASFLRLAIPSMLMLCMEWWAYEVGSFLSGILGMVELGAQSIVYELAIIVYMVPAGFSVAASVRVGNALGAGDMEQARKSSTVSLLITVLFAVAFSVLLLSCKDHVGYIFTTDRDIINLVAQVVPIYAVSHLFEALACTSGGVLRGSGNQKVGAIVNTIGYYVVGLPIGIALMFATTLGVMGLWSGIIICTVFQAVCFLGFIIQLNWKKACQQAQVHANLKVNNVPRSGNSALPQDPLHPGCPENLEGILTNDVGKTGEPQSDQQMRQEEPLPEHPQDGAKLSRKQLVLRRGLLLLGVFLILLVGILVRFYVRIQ
Description: as §1, §2

[1] = substrate: NCCc1c[nH]c2ccc(O)cc12

N=C(N)NCCCC(=O)O [4-Guanidinobutanoic acid, 4-guanidinobutanoic acid]
Intracellular background in HEK-OCT2 cells compared to HEK-VC cells (human OCT2; 0 minutes, without added substance): significantly higher | Intracellular background in HEK-OCT2 cells compared to HEK-VC cells (human OCT2; 5 minutes in transport buffer without added substance): reduced to the amount in HEK-VC cells | Intracellular background in HEK-MATE1 cells compared to HEK-VC cells (MATE1): significantly lower

B1: human OCT2 (Homo sapiens) (protein)
chain: MPTTVDDVLEHGGEFHFFQKQMFFLLALLSATFAPIYVGIVFLGFTPDHRCRSPGVAELSLRCGWSPAEELNYTVPGPGPAGEASPRQCRRYEVDWNQSTFDCVDPLASLDTNRSRLPLGPCRDGWVYETPGSSIVTEFNLVCANSWMLDLFQSSVNVGFFIGSMSIGYIADRFGRKLCLLTTVLINAAAGVLMAISPTYTWMLIFRLIQGLVSKAGWLIGYILITEFVGRRYRRTVGIFYQVAYTVGLLVLAGVAYALPHWRWLQFTVSLPNFFFLLYYWCIPESPRWLISQNKNAEAMRIIKHIAKKNGKSLPASLQRLRLEEETGKKLNPSFLDLVRTPQIRKHTMILMYNWFTSSVLYQGLIMHMGLAGDNIYLDFFYSALVEFPAAFMIILTIDRIGRRYPWAASNMVAGAACLASVFIPGDLQWLKIIISCLGRMGITMAYEIVCLVNAELYPTFIRNLGVHICSSMCDIGGIITPFLVYRLTNIWLELPLMVFGVLGLVAGGLVLLLPETKGKALPETIEEAENMQRPRKNKEKMIYLQVQKLDIPLN
Km [1]: 412.0 ± 143.6 µM
